Measurements taken from US7022520B2, “Cell culture media for mammalian cells” (University of Pittsburgh, priority 1996, dated 2006).

Assays:
[1] = tested on: proliferating hepatocytes; experiment: Matrigel overlay: reversion of proliferating hepatocytes to mature hepatocyte morphology; assay type: cell-based, rat; conditions: Matrigel overlay with 20 mM hydroxyurea
Experimental: To assess whether differentiation to mature hepatocyte morphology required DNA synthesis, 20 mM hydroxurea was added to the HBM media. […] Hydroxyurea was added to cultures before the Madrigel overlay and maintained throughout the next 5-day period.

hepatocytes = experiment: Hepatocytes between two type I collagen gel layers in HBM: ductular/acinar structures and proliferation; assay type: cell-based, rat; conditions: for phenotype of hepatocytes between two collagen gel layers: HBM supplemented with the growth factor, 15 day cultures
Experimental: (§1) Collagen gels were prepared as described by Michalopoulos, G. K., et al., Exp. Cell. Res. 94:70 (1975), the disclosure of which is incorporated herein by reference. Dry coating of plates with collagen and Matrigel was also performed as specified by the manufacturer. Matrigel gels were made by adding 50 μl of Matrigel solution into 0.5 ml of medium directly on the top of attached cells.
Hepatocytes maintained between two collagen gel layers retain their morphology and differentiation for prolonged time periods as described by Michalopoulos, G. K., et al., J. Cell. Physiol. 156:443 (1993), the disclosure of which is incorporated herein by reference. Hepatocytes maintained in collagen gel sandwiches in cultures with convential media containing HGF/SF undergo intense proliferation, form prominent projections, and eventually become organized in structures reminiscent of the hepatic plates. The behavior of hepatocytes maintained between two layers of collagen gel as previously described was examined, but in the presence of HBM supplemented with either HGF/SF or EGF as described above. […] These became prominent and encompassed most of the cells present in the cultures. Starting from approximately day 10 and by day 15 most of the cells in the culture were arranged in such ductular structures. Histologic sections are shown in FIG. 7B (light microscopy) and FIGS. 7C and 7D (electron microscopy). […] Some of the cells surrounding these structures were very attenuated and had light and electron microscopic appearance identical to bile duct epithelium. Others however are larger and resemble more closely the ductular hepatocytes described in previous studies of in vivo models. The proliferation of cells (data not shown) under either EGF or HGF/SF in the collagen gel sandwiches was much less (<25% at the highest peak) than that seen in the cultures on plastic coated with dry collagen. Most proliferation ceased by day 10 and the duct-like structures appeared after cell proliferation had ceased (days 10–15). […]

[2] = tested on: proliferating hepatocytes; experiment: DNA synthesis in hepatocyte cultures (tritiated thymidine uptake); assay type: cell-based, rat; conditions: for DNA synthesis: 20 mM, 5-day period
Experimental: (§2) DNA synthesis was measured by the uptake of tritiated thymidine into trichloroacetic acid (TCA) precipitable material as described by Kost, D. P., et al. (1991), cited above. Collagen gels, where necessary, were digested with 2 mg of collagenase per ml of MEM medium used. Incubation was then carried out for 30 minutes at 37° C. The digested gels were treated with NaOH followed by TCA to precipitate DNA, RNA, and proteins as described by Kost, D. P., et al. (1991), cited above.
To assess whether differentiation to mature hepatocyte morphology required DNA synthesis, 20 mM hydroxurea was added to the HBM media. This has been shown (Michalopoulos, G. K., et al., Cancer Res. 38:1866 (1978), the disclosure of which is incorporated herein by reference) to abolish scheduled semiconservative DNA synthesis in hepatocytes by inhibiting ribonucleotide reductase. Hydroxyurea was added to cultures before the Madrigel overlay and maintained throughout the next 5-day period.
Hepatocytes maintained between two collagen gel layers retain their morphology and differentiation for prolonged time periods as described by Michalopoulos, G. K., et al., J. Cell. Physiol. 156:443 (1993), the disclosure of which is incorporated herein by reference. Hepatocytes maintained in collagen gel sandwiches in cultures with convential media containing HGF/SF undergo intense proliferation, form prominent projections, and eventually become organized in structures reminiscent of the hepatic plates. The behavior of hepatocytes maintained between two layers of collagen gel as previously described was examined, but in the presence of HBM supplemented with either HGF/SF or EGF as described above. […] These became prominent and encompassed most of the cells present in the cultures. Starting from approximately day 10 and by day 15 most of the cells in the culture were arranged in such ductular structures. Histologic sections are shown in FIG. 7B (light microscopy) and FIGS. 7C and 7D (electron microscopy). […]

[3] = tested on: cytochrome P450 IIB1 mRNA; experiment: Northern blot of cytochrome IIB1 mRNA induction; conditions: PB added at day 10 of culture, harvest at day 15; with or without Matrigel at day 8; FIG. 6E
Experimental: Extraction of Total RNA and mRNA from Cultures. Total RNA was extracted from unwashed cell cultures using 2.0 ml of RNAzol B (BioTec) per well and purified per the manufacturer's guidelines. RNA concentration and purity were determined by routine spectrophotometry. Size separation of 20 μg RNA per lane was completed on denaturing it agarose gels and transferred to nylon membranes (Amersham, Arlington Heights, Ill.) by the capillary method. After cross-linking under UV light, the membranes were hybridized overnight with specific cDNAs (as indicated in the figures) that had been labeled with [α-^32P]dCTP using an Amersham random primer kit. Membranes were subsequently washed under high stringency conditions and exposed to XAR film (Eastman Kodak, Rochester, N.Y.) for 1–3 days. Quantification of the RNA hybridization bands were performed by laser densitometry.
The effect of Phenobarbitol (PB) on the levels of cytochrome P450 IIB1 mRNA in the Matrigel-treated cultures was also measured as shown in FIG. 6E. Matrigel was added to the cultures at day 8. PB was added 2 days later (day 10 of culture). The cells were harvested 5 days after addition of PB (day 15 in culture).

rat hepatocytes [4] = experiment: Hepatocyte proliferation in HBM supplemented with growth factors (total DNA per culture, thymidine uptake, BRdU labeling); assay type: cell-based; conditions: FIG. 2; for cell proliferation, total amount of DNA per culture at day 15: growth factor added individually to HBM medium
From the text: Rat hepatocytes were isolated by an adaptation of the calcium two step collagenase perfusion technique as taught by Kost, D. P., et al, J. Cell. Physiol. 147:274 (1991), the disclosure of which is incorporated herein by reference. All such preparations were designed to obtain a population of pure hepatocytes. […] After isolation of hepatocytes, the cells were suspended in a media used for cell attachment to the culture plates. This media was MEM (GIBCO 12570) with NEAA (GIBCO 11140), insulin 5 mg/L, and gentamycin 5 μg/ml. Hepatocytes were plated on a single layer of collagen coating as described below and left to attach for 2 hours. Six-well cluster plates (9.8 square centimeters […]) from Corning were used. For experiments where hepatocytes were not going to be induced to proliferate, or where assessments of differentiated function were performed, the cells were plated at a density of 80,000 hepatocytes per square centimeter of surface area. For experiments intended to induce proliferation or genetic transduction with foreign DNA, cells were plated at an initial density of 1,000 or 10,000 hepatocytes per square centimeter of surface area. The plating medium was replaced with the invention HBM medium at 2 hours after the cells were plated and every 48 hours thereafter. Thymidine, growth factors, and other ingredients, were added at the time of medium change as required.
as §2
FIGS. 1A and 1B show the uptake of thymidine per μg DNA, as well as the BRdU nuclear labeling index at different days in culture in cells growing in the presence of HGF/SF and EGF (40, 20 ng/ml respectively) as described above. […] By day 15 the cultures were confluent and DNA synthesis slowed down.
The growth factors HGF/SF, EGF, TGFα, KGF (keratinocyte growth factor), SCF (stem cell factor), and aFGF (acidic fibroblast growth factor) were added individually to HBM medium. […] The total DNA per culture is shown as a function of the time in culture. […] The DNA per culture at day 15 was 12 times that at time 0, reflecting the increase in cell number. […] TGFα alone was more mitogenic than either HGF/SF or EGF alone.

rat hepatocytes [5] = experiment: Effect of matrix substrates on hepatocyte growth (total DNA per culture at day 15); assay type: cell-based; conditions: dry coating of plates; HBM with HGF/SF 40 ng/ml and EGF 20 ng/ml; FIG. 3
Experimental: as §1
Several matrix substrates promoted cell growth in this system. […] The cells were cultured as described above. […] Coating with type I collagen (Vitrogen commercial preparation) was the standard method used for the experiments unless otherwise specified. The effect of matrix gels in promoting specific phenotypic conversions in these cultures is further discussed below.

In the case of `NC(=O)NO` [Hydroxyurea], the “conversion of the proliferating hepatocytes to mature hepatocyte morphology” value [1] is reported as “entirely unaffected”, the “formation of the ductular structures under inhibition of DNA synthesis” value (hepatocytes; collagen gel sandwich, data not shown) is reported as “did not affect the formation of the ductular structures” and the DNA synthesis ([2]; cultures in the presence of Matrigel) is reported as 6.27 % of control (without hydroxyurea). The DNA synthesis ([2]; proliferating cultures in the absence of Matrigel) was 3.93 % of the control (without hydroxyurea) and the “DNA synthesis (inhibition down to)” value ([2]; collagen gel sandwich cultures, data not shown) was 5.1 % of control.

For `CCC1(c2ccccc2)C(=O)NC(=O)NC1=O` [PB, Phenobarbitol], the “levels of cytochrome P450 IIB1 mRNA” value [3] was “induced cytochrome IIB1 mRNA only in the Matrigel-treated cultures”.

With EGF: epidermal growth factor the “cell proliferation, total amount of DNA per culture at day 15” value (from here on “cell proliferation … per culture at day 15”) (rat hepatocytes [4]) was “significant cell proliferation” and the “phenotype of hepatocytes between two collagen gel layers” value (hepatocytes) was “underwent the typical phenotypic transitions”.

For “HGF/SF: Hepatocyte growth factor, also known as scatter factor”, the “cell proliferation … per culture at day 15” value (rat hepatocytes [4]) was “significant cell proliferation” and the “phenotype of hepatocytes between two collagen gel layers” value (hepatocytes) was “multiple duct-shaped structures”.

SCF: stem cell factor was tested, and the “cell proliferation … per culture at day 15” value (rat hepatocytes [4]) was “no proliferative effect”.

For TGFα: transforming growth factor a, the “proliferative effect compared with the other mitogens” value (rat hepatocytes [4]; HBM medium, 15 days) was “stronger proliferative effect than any of the other mitogens when added alone” and the “cell proliferation … per culture at day 15” value (rat hepatocytes [4]) was “significant cell proliferation”.

In the case of aFGF: acidic fibroblast growth factor, the “cell proliferation … per culture at day 15” value (rat hepatocytes [4]) is reported as “no proliferative effect”.

For fibronectin, the “promotion of cell growth, total DNA per culture at day 15” value (“promotion … per culture at day 15” for short) (rat hepatocytes [5]) was “equally effective in promoting cell growth”.

laminin was tested, and the “promotion … per culture at day 15” value (rat hepatocytes [5]) was “equally effective in promoting cell growth”.

In the case of “type I (bovine): bovine skin collagen type I, dry coating matrix substrate”, the “promotion … per culture at day 15” value (rat hepatocytes [5]) is reported as “equally effective in promoting cell growth”.

B1: KGF: keratinocyte growth factor (protein, UniProt P21781 32-194, looked up)
Fibroblast growth factor 7: CNDMTPEQMATNVNCSSPERHTRSYDYMEGGDIRVRRLFCRTQWYLRIDKRGKVKGTQEMKNNYNIMEIRTVAVGIVAIKGVESEFYLAMNKEGKLYAKKECNEDCNFKELILENHYNTYASAKWTHNGGEMFVALNQKGIPVRGKKTKKEQKTAHFLPMAIT
For B1, the “cell proliferation … per culture at day 15” value (rat hepatocytes [4]) was “no proliferative effect”.
